What was measured:
TGF-β1 [1] = target: T1, TGF-β1 (Homo sapiens, UniProt P01137); test: Differential scanning fluorimetry (DSF) of TGF-β1; type: binding; details: TGF-β1 2.5 μM, DTT 10 mM, heparin 25 μM
T1 construct: full length mature TGF-β1 is 112 amino acids in length
Protocol: DSF was performed on a 7500 Fast Real PCR System (software version 1.4, Applied Biosystems), as described previously (34,35). TGF-β1 (2.5 μM) was tested with or without heparin (25 μM). To facilitate the melting of TGF-β1, 10 mM of dithiothreitol (DTT) was added to the reaction mix. Experiments were run as previously described (34). First derivatives of the melting curves were calculated using Origin 7 (OriginLab Corp.) to determine the melting temperature of TGF-β1 under the various conditions.

TGF-β1 [2] = target: T1, TGF-β1; test: SPR analysis of TGF-β1 binding to biotinylated heparin on SA chip
Protocol: Biotinylated heparin was prepared based on the protocol reported by Hernaiz et al. (33). Briefly, 20 mg of heparin was filter-sterilized (0.22 μm) in 1 ml of water and incubated with 8.6 μmol of N-hydroxysuccinimide-biotin (NHS-biotin) (Pierce) in 20 μl of dimethyl sulfoxide (DMSO) for 2 h at 4° C. The biotinylated heparin was then extensively dialyzed (7000 MWCO) to remove unreacted biotin. Immobilization of the biotinylated heparin onto a streptavidin (SA) sensor chip (GE Healthcare) was carried out using the immobilization wizard on the Biacore T100 (GE Healthcare) with a targeted immobilization level of approximately 40 response units (RUs). HBS-EP running buffer (10 mM HEPES, 150 mM NaCl, 3.0 mM EDTA, 0.05% (v/v) Tween 20, pH 7.4) was used for the immobilization.
TGF-β1-heparin interactions were effected by preparing a series of TGF-β1 protein samples (50 to 800 nM final concentration) diluted in HBS-EP-0.1 running buffer (0.1% instead of 0.05% (v/v) Tween 20). […] The sample solutions were then injected over the heparin-coated chip at a flow rate of 30 μl/min for 120 s, with HBS-EP-0.1 being subsequently passed over the chip for a further 1200 s to monitor TGF-β1 dissociation. After dissociation, the sensor surface on the chip was regenerated by 2 washes of 2 M NaCl injected at 30 μl/min for 60 s. The response was measured as a function of time (sensogram) at 25° C. […]

TGF-β1 [3] = target: T1, TGF-β1; test: GAG-binding plate assay; details: wells coated with 5 μg/ml GAG; TGF-β1 100, 200 or 400 ng/ml
Protocol: GAGs are immobilized in each well and then challenged with TGF-β1 according to the manufacturer's instructions. Briefly, triplicate wells are first pre-coated with 5 μg/ml of heparin, HS^PM, HS16^+ve or HS16^−ve in standard assay buffer (SAB: 100 mM NaCl, 50 mM sodium acetate, 0.2% v/v Tween 20, pH 7.2), and then incubated overnight at room temperature. The plates are next washed carefully three times with SAB, blocked with 250 μl of blocking solution (0.4% w/v fish skin gelatine, Sigma-Aldrich, in SAB) and incubated for 1 h at 37° C. TGF-β1 was then dissolved in blocking solution at a concentration of 100, 200, or 400 ng/ml. The plates are washed three times with SAB and each dilution of protein (200 μl) is dispensed into triplicate wells and incubated for 2 h at 37° C., rinsed with SAB and 200 μl of 750 ng/ml monoclonal mouse anti-TGF-β1 antibody (MAB2401, R&D Systems) added in blocking solution. Plates are then incubated for 1 h at 37° C., washed with SAB, and 200 μl of 1 μg/ml polyclonal goat anti-mouse biotinylated antibody (ab6788, Abcam) added in blocking solution. Again, plates are incubated for 1 h at 37° C., washed with SAB, and 200 μl of 220 ng/ml ExtrAvidin AP (Sigma-Aldrich) is added in blocking solution, incubated for 30 min at 37° C., and then rinsed with SAB. Finally, 200 μl of development reagent (SigmaFAST p-Nitrophenyl phosphate, Sigma-Aldrich) is added, incubated at 37° C. for 40 min and read at 405 nm within 1 h.
To determine the ability of TGF-β1 to bind to heparin, we utilized positively-charged GAG-binding plates (Iduron) as a capture substrate. GAGs were immobilized in each well and then challenged with TGF-β1 according to the manufacturer's instructions. Briefly, triplicate wells were first pre-coated with 5 μg/ml of full length heparin, size-fractionated heparin (dp14, 16, 18, 20, 22 and 24) or selectively […] heparin prepared in standard assay buffer (SAB: 100 mM NaCl, 50 mM sodium acetate, 0.2% v/v Tween 20, pH 7.2), and then incubated overnight at room temperature. The plates were next washed carefully three times with SAB, blocked with 250 μl of blocking solution (0.4% w/v fish skin gelatine, Sigma-Aldrich, in SAB) and incubated for 1 h at 37° C. TGF-β1 was then dissolved in blocking solution at a concentration of 100, 200, or 400 ng/ml. The plates were washed three times with SAB and each dilution of protein (200 μl) was dispensed into triplicate wells and incubated for 2 h at 37° C., rinsed with SAB and 200 μl of 750 ng/ml monoclonal mouse anti-TGF-β1 antibody (MAB2401, R&D Systems) added in blocking solution. […] Finally, 200 μl of development reagent (SigmaFAST p-Nitrophenyl phosphate, Sigma-Aldrich) was added, incubated at 37° C. for 40 min and read at 405 nm within 1 h.

T1 sequence (P01137 279-390 limits assumed): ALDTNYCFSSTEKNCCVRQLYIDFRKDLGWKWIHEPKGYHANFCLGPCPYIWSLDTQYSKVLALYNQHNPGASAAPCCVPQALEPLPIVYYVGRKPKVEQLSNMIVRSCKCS

melting temperature of TGF-β1 upon addition of heparin (TGF-β1 [1]): 47.5 °C | TGF-β1 binding to heparin immobilized on Biacore SA-chip (TGF-β1 [2]): bound in a dose-dependent manner | Kd (TGF-β1 [2]; TGF-β1 50 to 800 nM injected over heparin-coated SA chip): ~475 nM | TGF-β1 binding to immobilized GAG (TGF-β1 [3]): bound in a dose-dependent manner
Substance: heparin

From US10596296B2, “Heparan sulphates” (Agency for Science, Technology and Research, priority 2014, dated 2020)
